The values below come from patent US11559482B2, “Biodegradable polyethylene glycol based water-insoluble hydrogels” (Ascendis Pharma A/S, priority 2009, dated 2023).

This series can be described thus: Injectability: force versus flow using a 30 G needle. The class given is physicochemical. The conditions noted are these: 1 mL syringe. As for the experimental part:
5 mL insulin-linker-hydrogel prodrug 29 (bead size distribution from 32-75 μm, 18 mg insulin/ml insulin-linker-hydrogel prodrug suspension) was buffer exchanged into pH 5.0 succinic acid/tris (10 mM, 40 g/L mannitol; 10 g/L trehalose dihydrate; 0.05% TWEEN-20). The insulin-linker-hydrogel prodrug suspension was filled into a 1 mL syringe (length 57 mm) via a 20 G needle. The 20 G needle was replaced by a 30 G needle and placed into the syringe mounting (Aqua Computer GmbH&Co. KG) and the measurement was started with a piston velocity of 172 mm/min (equals 50 μL/s) (Force test stand: Multitest 1-d, Data recording software: EvaluatEmperor Lite, Version 1.16-015, Forge Gauge: BFG 200 N (all Mecmesin Ltd., UK). Experiments with increasing piston velocities shown in the table below were carried out with a new insulin-linker-hydrogel prodrug sample. The experiments with water and ethylene glycol were carried out accordingly. For all of the experiments the same 30 G needle was used.

SMILES strings stand for the structures.

Regarding `OCCO` [ethylene glycol], the Force by setting is: (flow 6 sec/mL, 167 μL/sec, piston velocity 573 mm/min) 83 N; (flow 8 sec/mL, 125 μL/sec, piston velocity 430 mm/min) 62 N; (flow 10 sec/mL, 100 μL/sec, piston velocity 344 mm/min) 51 N; (flow 15 sec/mL, 67 μL/sec, piston velocity 229 mm/min) 35 N; (flow 20 sec/mL, 50 μL/sec, piston velocity 172 mm/min) 27 N.
